The results in this text go back to ChEMBL document CHEMBL1275522, “Antimicrobial studies with the Pseudomonas aeruginosa two-allele library require caution” (2008).

Structures are written as SMILES. In brackets after ≈: the same amount, converted by molar mass.

Common to all, as to type: functional
Test [1] concerns Pseudomonas aeruginosa. Kind of test: Antimicrobial against Pseudomonas aeruginosa PAO1 by Etest method.
Test [2] relates to Pseudomonas aeruginosa. Description: Antimicrobial against Pseudomonas aeruginosa 33410 harboring phoU allele by Etest method.
The subject of test [3] is Pseudomonas aeruginosa. Description: Antimicrobial against Pseudomonas aeruginosa 30848 harboring phoU allele by Etest method.
Test [4] deals with Pseudomonas aeruginosa. Kind of test: Antimicrobial against Pseudomonas aeruginosa 32455 harboring phzS allele by Etest method.
Test [5] concerns Pseudomonas aeruginosa. Description: Antimicrobial against Pseudomonas aeruginosa 3208 harboring phzM allele by Etest method.
Test [6] deals with Pseudomonas aeruginosa. Description: Antimicrobial against Pseudomonas aeruginosa 3434 by Etest method.
Test [7] deals with Pseudomonas aeruginosa. Description: Antimicrobial against Pseudomonas aeruginosa 3894 by Etest method.
The test system of test [8] is Pseudomonas aeruginosa. Kind of test: Antimicrobial against Pseudomonas aeruginosa 1494 harboring phnA allele by Etest method.
The subject of test [9] is Pseudomonas aeruginosa. Description: Antimicrobial against Pseudomonas aeruginosa 40198 harboring nirJ allele by Etest method.
The subject of test [10] is Pseudomonas aeruginosa. Description: Antimicrobial against Pseudomonas aeruginosa 8564 harboring pyrX allele by Etest method.
Test [11] concerns Pseudomonas aeruginosa. Description: Antimicrobial against Pseudomonas aeruginosa 9256 harboring ybhO allele by Etest method.
The test system of test [12] is Pseudomonas aeruginosa. Kind of test: Antimicrobial against Pseudomonas aeruginosa 8666 by Etest method.
Test [13] deals with Pseudomonas aeruginosa. Kind of test: Antimicrobial against Pseudomonas aeruginosa 3465 harboring tsaA allele by Etest method.
Test [14] has as its system Pseudomonas aeruginosa. Kind of test: Antimicrobial against Pseudomonas aeruginosa 312 harboring PBPP allele by Etest method.
Test [15] deals with Pseudomonas aeruginosa. Description: Antimicrobial against Pseudomonas aeruginosa 46396 harboring katA allele by Etest method.
Test [16] concerns Pseudomonas aeruginosa. Description: Antimicrobial against Pseudomonas aeruginosa 30848 harboring phoU allele by broth dilution method. A general note: In broth dilution the organism is exposed to a series of concentrations in liquid medium.
For test [17], the system named is Pseudomonas aeruginosa. Kind of test: Antimicrobial against Pseudomonas aeruginosa 32455 harboring phzS allele by broth dilution method.
Test [18] deals with Pseudomonas aeruginosa. Kind of test: Antimicrobial against Pseudomonas aeruginosa 3208 harboring phzM allele by broth dilution method.
In test [19] the test system is Pseudomonas aeruginosa. Description: Antimicrobial against Pseudomonas aeruginosa 3434 by broth dilution method.
Test [20] relates to Pseudomonas aeruginosa. Description: Antimicrobial against Pseudomonas aeruginosa 3894 by broth dilution method.
Test [21] has as its system Pseudomonas aeruginosa. Kind of test: Antimicrobial against Pseudomonas aeruginosa 1494 harboring phnA allele by broth dilution method.
The test system of test [22] is Pseudomonas aeruginosa. Kind of test: Antimicrobial against Pseudomonas aeruginosa 40198 harboring nirJ allele by broth dilution method.
Test [23] has as its system Pseudomonas aeruginosa. Description: Antimicrobial against Pseudomonas aeruginosa 8564 harboring pyrX allele by broth dilution method.
The subject of test [24] is Pseudomonas aeruginosa. Kind of test: Antimicrobial against Pseudomonas aeruginosa 9256 harboring ybhO allele by broth dilution method.
Test [25] deals with Pseudomonas aeruginosa. Description: Antimicrobial against Pseudomonas aeruginosa 8666 by broth dilution method.
Test [26] relates to Pseudomonas aeruginosa. Kind of test: Antimicrobial against Pseudomonas aeruginosa 3465 harboring tsaA allele by broth dilution method.
Test [27] relates to Pseudomonas aeruginosa. Description: Antimicrobial against Pseudomonas aeruginosa 312 harboring PBPP allele by broth dilution method.
Test [28] relates to Pseudomonas aeruginosa. Description: Antimicrobial against Pseudomonas aeruginosa 46396 harboring katA allele by broth dilution method.
Test [29] relates to Pseudomonas aeruginosa. Description: Antimicrobial against Pseudomonas aeruginosa PAO1 by broth dilution method.
Test [30] concerns Pseudomonas aeruginosa. Description: Antimicrobial against Pseudomonas aeruginosa 33410 harboring phoU allele by broth dilution method.

By MIC is commonly meant the least concentration at which growth counts as inhibited. Read a high MIC as a less susceptible organism. Regarding `CC(C)(O/N=C(\C(=O)N[C@@H]1C(=O)N2C(C(=O)[O-])=C(C[n+]3ccccc3)CS[C@H]12)c1csc(N)n1)C(=O)O` [CEFTAZIDIME], the MIC came to 2 µg/mL (≈ 3.66 µM) with Pseudomonas aeruginosa [1]; 1.5 µg/mL (≈ 2.74 µM) in the test with Pseudomonas aeruginosa [2]; 3 µg/mL (≈ 5.49 µM) against Pseudomonas aeruginosa [3]; 2 µg/mL (≈ 3.66 µM) with Pseudomonas aeruginosa [4]; 2 µg/mL (≈ 3.66 µM) in the test with Pseudomonas aeruginosa [5]; 2.5 µg/mL (≈ 4.57 µM) against Pseudomonas aeruginosa [6]. For the same compound, the MIC against Pseudomonas aeruginosa [7] was determined as 2.5 µg/mL (≈ 4.57 µM); in the test with Pseudomonas aeruginosa [8], 1.5 µg/mL (≈ 2.74 µM); in the test on Pseudomonas aeruginosa [9], 1.5 µg/mL (≈ 2.74 µM); in the test with Pseudomonas aeruginosa [10], 1.5 µg/mL (≈ 2.74 µM); with Pseudomonas aeruginosa [11], 2 µg/mL (≈ 3.66 µM); against Pseudomonas aeruginosa [12], 2 µg/mL (≈ 3.66 µM). The minimum inhibitory concentration (MIC) with Pseudomonas aeruginosa [13], against Pseudomonas aeruginosa [14] and against Pseudomonas aeruginosa [15] was 2 µg/mL (≈ 3.66 µM) throughout.

With `O=C(N[C@H](CO)[C@H](O)c1ccc([N+](=O)[O-])cc1)C(Cl)Cl` [CHLORAMPHENICOL], the MIC in the test on Pseudomonas aeruginosa [16] is 200 µg/mL (≈ 619 µM); in the test with Pseudomonas aeruginosa [17], 12.5 µg/mL (≈ 38.7 µM); with Pseudomonas aeruginosa [18], 12.5 µg/mL (≈ 38.7 µM); against Pseudomonas aeruginosa [19] it was 25 µg/mL (≈ 77.4 µM); in the test with Pseudomonas aeruginosa [20], 12.5 µg/mL (≈ 38.7 µM); against Pseudomonas aeruginosa [21], 12.5 µg/mL (≈ 38.7 µM). The MIC in the test on Pseudomonas aeruginosa [22], in the test with Pseudomonas aeruginosa [23], in the test with Pseudomonas aeruginosa [24], in the test on Pseudomonas aeruginosa [25], in the test on Pseudomonas aeruginosa [26] and in the test with Pseudomonas aeruginosa [27] was 12.5 µg/mL (≈ 38.7 µM) in each case. Moreover, the results for the MIC against Pseudomonas aeruginosa [28], with Pseudomonas aeruginosa [29] and against Pseudomonas aeruginosa [30] were 12.5 µg/mL (≈ 38.7 µM), 800 µg/mL (≈ 2480 µM) and 12.5 µg/mL (≈ 38.7 µM), respectively.

Regarding `O=C(O)c1cn(C2CC2)c2cc(N3CCNCC3)c(F)cc2c1=O` [CIPROFLOXACIN], the MIC in the test with Pseudomonas aeruginosa [16] is 0.2 µg/mL (≈ 0.604 µM); against Pseudomonas aeruginosa [17] it was 0.1 µg/mL (≈ 0.302 µM); in the test with Pseudomonas aeruginosa [18] it was 0.1 µg/mL (≈ 0.302 µM); in the test on Pseudomonas aeruginosa [19] it was 0.05 µg/mL (≈ 0.151 µM); in the test with Pseudomonas aeruginosa [20] it was 0.05 µg/mL (≈ 0.151 µM); in the test with Pseudomonas aeruginosa [21], 0.1 µg/mL (≈ 0.302 µM). For the same compound, the minimum inhibitory concentration (MIC) against Pseudomonas aeruginosa [22], in the test on Pseudomonas aeruginosa [23], against Pseudomonas aeruginosa [24], against Pseudomonas aeruginosa [25], against Pseudomonas aeruginosa [26] and against Pseudomonas aeruginosa [27] was 0.1 µg/mL (≈ 0.302 µM) in each case. The MIC was determined as 0.1 µg/mL (≈ 0.302 µM) in the test on Pseudomonas aeruginosa [28], 0.8 µg/mL (≈ 2.41 µM) against Pseudomonas aeruginosa [29] and 0.05 µg/mL (≈ 0.151 µM) with Pseudomonas aeruginosa [30].

On to `C[C@@H](O)[C@H]1C(=O)N2C(C(=O)O)=C(S[C@@H]3CN[C@H](C(=O)N(C)C)C3)[C@H](C)[C@H]12` [MEROPENEM], for which the MIC was determined as 0.38 µg/mL (≈ 0.991 µM) against Pseudomonas aeruginosa [1]; 0.38 µg/mL (≈ 0.991 µM) against Pseudomonas aeruginosa [2]; 0.5 µg/mL (≈ 1.3 µM) against Pseudomonas aeruginosa [3]; 0.25 µg/mL (≈ 0.652 µM) in the test on Pseudomonas aeruginosa [4]; 0.38 µg/mL (≈ 0.991 µM) against Pseudomonas aeruginosa [5]; 0.38 µg/mL (≈ 0.991 µM) against Pseudomonas aeruginosa [6]. Also, the minimum inhibitory concentration (MIC) was 0.19 µg/mL (≈ 0.495 µM) with Pseudomonas aeruginosa [7]; 0.38 µg/mL (≈ 0.991 µM) in the test with Pseudomonas aeruginosa [8]; 0.25 µg/mL (≈ 0.652 µM) against Pseudomonas aeruginosa [9]; 0.38 µg/mL (≈ 0.991 µM) in the test on Pseudomonas aeruginosa [10]; 0.25 µg/mL (≈ 0.652 µM) against Pseudomonas aeruginosa [11]; 0.25 µg/mL (≈ 0.652 µM) in the test on Pseudomonas aeruginosa [12]. The MIC with Pseudomonas aeruginosa [13], against Pseudomonas aeruginosa [14] and in the test on Pseudomonas aeruginosa [15] was 0.25 µg/mL (≈ 0.652 µM) throughout.

As for `CCn1cc(C(=O)O)c(=O)c2cc3c(cc21)OCO3` [OXOLINIC ACID], the MIC in the test on Pseudomonas aeruginosa [16] came to 16 µg/mL (≈ 61.2 µM); against Pseudomonas aeruginosa [17] it was 4 µg/mL (≈ 15.3 µM); with Pseudomonas aeruginosa [18] it was 4 µg/mL (≈ 15.3 µM); in the test on Pseudomonas aeruginosa [19] it was 4 µg/mL (≈ 15.3 µM); with Pseudomonas aeruginosa [20] it was 8 µg/mL (≈ 30.6 µM); in the test on Pseudomonas aeruginosa [21], 8 µg/mL (≈ 30.6 µM). Besides, the MIC in the test on Pseudomonas aeruginosa [22] was determined as 8 µg/mL (≈ 30.6 µM); against Pseudomonas aeruginosa [23], 8 µg/mL (≈ 30.6 µM); with Pseudomonas aeruginosa [24], 8 µg/mL (≈ 30.6 µM); against Pseudomonas aeruginosa [25], 8 µg/mL (≈ 30.6 µM); against Pseudomonas aeruginosa [26], 4 µg/mL (≈ 15.3 µM); against Pseudomonas aeruginosa [27], 8 µg/mL (≈ 30.6 µM). The MIC against Pseudomonas aeruginosa [28] worked out at 8 µg/mL (≈ 30.6 µM); against Pseudomonas aeruginosa [29] it was 64 µg/mL (≈ 245 µM); against Pseudomonas aeruginosa [30], 4 µg/mL (≈ 15.3 µM).

Turning to `NC[C@H]1O[C@H](O[C@H]2[C@H](O)[C@@H](O[C@H]3O[C@H](CO)[C@@H](O)[C@H](N)[C@H]3O)[C@H](N)C[C@@H]2N)[C@H](N)C[C@@H]1O` [TOBRAMYCIN], the MIC was 0.4 µg/mL (≈ 0.856 µM) against Pseudomonas aeruginosa [16]; 0.4 µg/mL (≈ 0.856 µM) with Pseudomonas aeruginosa [17]; 0.2 µg/mL (≈ 0.428 µM) with Pseudomonas aeruginosa [18]; 0.4 µg/mL (≈ 0.856 µM) in the test with Pseudomonas aeruginosa [19]; 0.4 µg/mL (≈ 0.856 µM) against Pseudomonas aeruginosa [20]; 0.4 µg/mL (≈ 0.856 µM) against Pseudomonas aeruginosa [21]. For the same compound, the MIC with Pseudomonas aeruginosa [22] amounted to 0.4 µg/mL (≈ 0.856 µM); against Pseudomonas aeruginosa [23], 0.2 µg/mL (≈ 0.428 µM); in the test on Pseudomonas aeruginosa [24], 0.4 µg/mL (≈ 0.856 µM); against Pseudomonas aeruginosa [25], 0.2 µg/mL (≈ 0.428 µM); with Pseudomonas aeruginosa [26] it was 0.2 µg/mL (≈ 0.428 µM); against Pseudomonas aeruginosa [27], 0.2 µg/mL (≈ 0.428 µM). The MIC in the test with Pseudomonas aeruginosa [28] was 0.2 µg/mL (≈ 0.428 µM); in the test on Pseudomonas aeruginosa [29], 0.2 µg/mL (≈ 0.428 µM); against Pseudomonas aeruginosa [30], 0.4 µg/mL (≈ 0.856 µM).
